Data on 25 compounds can be found in patent US8501794B2, “Compounds as cannabinoid receptor ligands” (priority 2007, dated 2013).

The target of assay [1] is T1, human CB2 receptors (Homo sapiens, UniProt P34972).
T1 construct: expressed in transfected cells; host or cells: HEK293
Description: human CB2 radioligand binding assay ([3H]CP-55,940 competition).

Assay [2] concerns the target T2, rat CB2 (Rattus norvegicus, UniProt Q9QZN9).
T2 sequence (Q9QZN9 1-360): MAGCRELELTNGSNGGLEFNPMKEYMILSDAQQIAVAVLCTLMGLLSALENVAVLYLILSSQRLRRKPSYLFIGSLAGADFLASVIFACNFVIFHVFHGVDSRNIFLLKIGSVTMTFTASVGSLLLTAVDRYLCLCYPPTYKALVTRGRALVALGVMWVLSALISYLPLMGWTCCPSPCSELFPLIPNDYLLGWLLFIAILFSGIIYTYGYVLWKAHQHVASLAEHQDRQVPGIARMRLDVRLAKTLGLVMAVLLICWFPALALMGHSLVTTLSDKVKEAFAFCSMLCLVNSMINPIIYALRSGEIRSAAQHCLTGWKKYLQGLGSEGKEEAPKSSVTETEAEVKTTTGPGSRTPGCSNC
In words: rat CB2 radioligand binding assay ([3H]CP-55,940 competition). Details: expressed in transfected cells; host or cells: HEK293.

Setting [3] is: HEK293 membranes, 0.5 nM [3H]CP-55,940, read-out: human CB2 (Ki).
Setting [4] is: HEK293 membranes, 0.5 nM [3H]CP-55,940, read-out: rat CB2 (Ki).

As usually defined, the pKi is the negative decadic logarithm of the Ki, by convention in mol/L.

Molecules are shown by their SMILES. pKi: −log10 of the molar value. Where two headings read alike, the source gives them in different places.

T1 sequence (P34972 whole entry): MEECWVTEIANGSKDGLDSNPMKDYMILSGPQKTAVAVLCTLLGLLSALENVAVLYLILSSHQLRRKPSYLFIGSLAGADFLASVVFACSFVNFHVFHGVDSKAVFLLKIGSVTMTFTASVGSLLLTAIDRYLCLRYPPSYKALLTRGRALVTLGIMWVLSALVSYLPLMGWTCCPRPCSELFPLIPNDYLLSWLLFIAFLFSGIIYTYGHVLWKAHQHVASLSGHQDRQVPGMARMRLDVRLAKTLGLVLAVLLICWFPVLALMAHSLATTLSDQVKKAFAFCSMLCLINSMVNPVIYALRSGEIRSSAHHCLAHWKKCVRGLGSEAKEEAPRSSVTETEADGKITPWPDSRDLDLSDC

In the case of `CCCCc1cn(C(C)(C)C)s/c1=N\S(=O)(=O)c1ccccc1` [Example 119, N-[(5Z)-4-butyl-2-tert-butylisothiazol-5(2H)-ylidene]benzenesulfonamide], the pKi was 6.77 in assay [1] (setting [3]) and 7.48 in assay [2].

For the compound `CCCCc1cn(C(C)(C)C)s/c1=N\C(=O)c1cc(C#N)ccc1OCC(F)(F)F` [Example 130, N-[(5Z)-4-butyl-2-tert-butylisothiazol-5(2H)-ylidene]-5-cyano-2-(2,2,2-trifluoroethoxy)benzamide], the pKi in assay [1] was 7.09; in assay [2], 8.55.

Consider `COc1ccc(Cl)cc1C(=O)/N=c1\sn(C(C)(C)C)c(C)c1NC(=O)OC(C)(C)C` [Example 162, Tert-butyl [(5Z)-2-tert-butyl-5-{[(5-chloro-2-methoxyphenyl)carbonyl]imino}-3-methyl-2,5-dihydroisothiazol-4-yl]carbamate], for which the pKi was 6.92 in assay [1] (setting [3]) and 7.33 in assay [2].

Take `CCCCc1cn(C(C)(C)C)s/c1=N\C(=O)[C@]1(C)CC[C@H](C(=O)N2CCC2)C1(C)C` [Example 178, (1R,3S)-3-(azetidin-1-ylcarbonyl)-N-[(5Z)-4-butyl-2-tert-butylisothiazol-5(2H)-ylidene]-1,2,2-trimethylcyclopentanecarboxamide]: the pKi in assay [1] is 6.77; in assay [2] it was 7.34.

For the compound `CCCCc1cn(C(C)(C)C)s/c1=N\C(=O)[C@]1(C)CC[C@H](C(=O)N(C)C)C1(C)C` [Example 179, (1R,3S)—N^1-[(5Z)-4-butyl-2-tert-butylisothiazol-5(2H)-ylidene]-N^3,N^3,1,2,2-pentamethylcyclopentane-1,3-dicarboxamide], the pKi in assay [1] is 6.80; in assay [2] it was 7.17.

Take `CCCCc1cn(C(C)(C)C)s/c1=N\C(=O)[C@]1(C)CC[C@H](C(=O)N2CC(O)C2)C1(C)C` [Example 180, (1R,3S)—N-[(5Z)-4-butyl-2-tert-butylisothiazol-5(2H)-ylidene]-3-[(3-hydroxyazetidin-1-yl)carbonyl]-1,2,2-trimethylcyclopentanecarboxamide]: the pKi is 6.59 in assay [1] (setting [3]) and 7.43 in assay [2].

`CCCCc1cn(C(C)(C)C)s/c1=N\C(=O)[C@H]1CC[C@@](C)(C(=O)O)C1(C)C` [Example 181, (1R,3S)-3-({[(5Z)-4-butyl-2-tert-butylisothiazol-5(2H)-ylidene]amino}carbonyl)-1,2,2-trimethylcyclopentanecarboxylic acid]: the results for the pKi in assay [1] and in assay [2] were 6.80 and 7.82, respectively.

`CCCCc1cn(C(C)(C)C)s/c1=N\C(=O)[C@H]1CC[C@@](C)(C(=O)NC)C1(C)C` [Example 182, (1R,3S)—N-[(5Z)-4-butyl-2-tert-butylisothiazol-5(2H)-ylidene]-N^1,1,2,2-tetramethylcyclopentane-1,3-dicarboxamidetetramethylcyclopentane-1,3-dicarboxamide]: the pKi is 6.46 in assay [1] and 6.49 in assay [2].

For `CCCCc1cn(C(C)(C)C)s/c1=N\C(=O)[C@H]1CC[C@@](C)(C(=O)N(C)C)C1(C)C` [Example 183, (1R,3S)—N^3-[(5Z)-4-butyl-2-tert-butylisothiazol-5(2H)-ylidene]-N^1,N^1,1,2,2-pentamethylcyclopentane-1,3-dicarboxamide], the results for the pKi in assay [1] (setting [3]) and in assay [2] were 6.68 and 7.40, respectively.

As to `CCCCc1cn(C(C)(C)C)s/c1=N\C(=O)[C@]1(C)CC[C@H](C(=O)N2CC(F)(F)C2)C1(C)C` [Example 185, (1R,3S)—N-[(5Z)-4-butyl-2-tert-butylisothiazol-5(2H)-ylidene]-3-[(3,3-difluoroazetidin-1-yl)carbonyl]-1,2,2-trimethylcyclopentanecarboxamide], the values for the pKi in assay [1] (setting [3]) and in assay [2] were 6.95 and 7.31, respectively.

In the case of `CCCCc1cn(C(C)(C)C)s/c1=N\C(=O)OCC(C)(C)C` [Example 187, Neopentyl (5Z)-4-butyl-2-tert-butylisothiazol-5(2H)-ylidenecarbamate], the pKi was 7.42 in assay [1] and 8.09 in assay [2].

For `CCCCc1cn(C(C)(C)C)s/c1=N\C(=O)OC12CC3CC(CC(C3)C1)C2` [Example 189, 1-adamantyl (5Z)-4-butyl-2-tert-butylisothiazol-5(2H)-ylidenecarbamate], the pKi in assay [1] was 7.41; in assay [2], 8.28.

Take `CCCCc1cn(C(C)(C)C)s/c1=N\C(=O)N[C@H](C(=O)NC)C(C)(C)C` [Example 190, N^2-({[(5Z)-4-butyl-2-tert-butylisothiazol-5(2H)-ylidene]amino}carbonyl)-N^1,3-dimethyl-L-valinamide]: the pKi in assay [1] and in assay [2] was 8.62 each time.

Regarding `CCCCc1cn(C(C)(C)C)s/c1=N\C(=O)c1cc(C(F)(F)F)ccc1OC[C@@H]1CCC(=O)N1` [Example 194, N-[(5Z)-4-butyl-2-tert-butylisothiazol-5(2H)-ylidene]-2-{[(2S)-5-oxopyrrolidin-2-yl]methoxy}-5-(trifluoromethyl)benz amide], the results for the pKi in assay [1] (setting [3]) and in assay [2] were 6.77 and 7.39, respectively.

With `CC(C)Cc1cn(C(C)(C)C)s/c1=N\C(=O)c1cc(C(F)(F)F)ccc1OC[C@@H]1CCCN1C` [Example 197, N-[(5Z)-2-tert-butyl-4-isobutylisothiazol-5(2H)-ylidene]-2-{[(2S)-1-methylpyrrolidin-2-yl]methoxy}-5-(trifluoromethyl)benzamide], the negative logarithm of the Ki (pKi) is 6.59 in assay [1] (setting [3]) and 6.81 in assay [2] (setting [4]).

In the case of `CCCCc1cn(C(C)(C)C)s/c1=N\C(=O)c1cc(C(F)(F)F)ccc1OCc1cnccn1` [Example 198, N-[(5Z)-4-butyl-2-tert-butylisothiazol-5(2H)-ylidene]-2-(pyrazin-2-ylmethoxy)-5-(trifluoromethyl)benzamide], the pKi in assay [1] (setting [3]) was 6.60; in assay [2] (setting [4]), 6.95.

With `CC(C)Cc1cn(C(C)(C)C)s/c1=N\C(=O)c1cc(C(F)(F)F)ccc1OCc1ccccn1` [Example 200, N-[(5Z)-2-tert-butyl-4-isobutylisothiazol-5(2H)-ylidene]-2-(pyridin-2-ylmethoxy)-5-(trifluoromethyl)benzamide], the pKi in assay [1] (setting [3]) is 6.33; in assay [2] (setting [4]), 6.41.

For the compound `CCCCc1cn(C(C)(C)C)s/c1=N\C(=O)[C@]1(C)CC[C@H](C(=O)NC2CC2)C1(C)C` [Example 208, (1R,3S)—N^1-[(5Z)-4-butyl-2-tert-butylisothiazol-5(2H)-ylidene]-N^3-cyclopropyl-1,2,2-trimethylcyclopentane-1,3-dicarboxamide], the pKi was 6.70 in assay [1] (setting [3]) and 7.96 in assay [2].

With `CCCCc1cn(C(C)(C)C)s/c1=N\C(=O)[C@@H]1CC[C@](C)(C(=O)NCCC)C1(C)C` [Example 211, (1S,3R)—N^3-[(5Z)-4-butyl-2-tert-butylisothiazol-5(2H)-ylidene]-1,2,2-trimethyl-N^1-propylcyclopentane-1,3-dicarboxamide], the pKi in assay [1] (setting [3]) was 6.57; in assay [2] (setting [4]) it was 6.95.

As for `CCCCc1cn(C(C)(C)C)s/c1=N\C(=O)[C@]1(C)CC[C@H](C(=O)NCCCO)C1(C)C` [Example 213, (1R,3S)—N^1-[(5Z)-4-butyl-2-tert-butylisothiazol-5(2H)-ylidene]-N^3-(3-hydroxypropyl)-1,2,2-trimethylcyclopentane-1,3-dicarboxamide], the pKi was 6.85 in assay [1] (setting [3]) and 7.35 in assay [2].

For `CCCCc1cn(C(C)(C)C)s/c1=N\C(=O)[C@]1(C)CC[C@H](C(=O)NC[C@H]2CCCO2)C1(C)C` [Example 214, (1R,3S)—N^1-[(5Z)-4-butyl-2-tert-butylisothiazol-5(2H)-ylidene]-1,2,2-trimethyl-N^3-[(2R)-tetrahydrofuran-2-ylmethyl]cyclopentane-1,3-dicarboxamide], the results for the pKi in assay [1] and in assay [2] were 6.89 and 7.08, respectively.

Regarding `CCCCc1cn(C(C)(C)C)s/c1=N\C(=O)[C@]1(C)CC[C@H](NC(=O)OC)C1(C)C` [Example 215, Methyl (1S,3R)-3-({[(5Z)-4-butyl-2-tert-butylisothiazol-5(2H)-ylidene]amino}carbonyl)-2,2,3-trimethylcyclopentylcarbamate], the pKi in assay [1] is 7.16; in assay [2] it was 7.04.

`CCCCc1cn(C(C)(C)C)s/c1=N\C(=O)[C@]1(C)CC[C@H](NC(=O)OCC)C1(C)C` [Example 216, Ethyl (1S,3R)-3-({[(5Z)-4-butyl-2-tert-butylisothiazol-5(2H)-ylidene]amino}carbonyl)-2,2,3-trimethylcyclopentylcarbamate]: the figures for the pKi in assay [1] (setting [3]) and in assay [2] (setting [4]) were 6.80 and 6.52, respectively.

On to `CCCCc1cn(C(C)(C)C)s/c1=N\C(=O)[C@@]1(C)CC[C@@H](C(=O)NCCC)C1(C)C` [Example 219, (1S,3R)—N^1-[(5Z)-4-butyl-2-tert-butylisothiazol-5(2H)-ylidene]-1,2,2-trimethyl-N^3-propylcyclopentane-1,3-dicarboxamide], for which the figures for the pKi in assay [1] (setting [3]) and in assay [2] (setting [4]) were 6.69 and 6.80, respectively.

As for `CCCCc1cn(C(C)(C)C)s/c1=N\C(=O)[C@@H]1CC[C@](C)(C2=NCCO2)C1(C)C` [Example 224, (1R,3S)—N-[(5Z)-4-butyl-2-tert-butylisothiazol-5(2H)-ylidene]-3-(4,5-dihydro-1,3-oxazol-2-yl)-2,2,3-trimethylcyclopentanecarboxamide], the pKi in assay [1] is 7.42; in assay [2], 7.70.
